# Where two headings read alike, the source gives them in different places. Starred links: 1 amine or outer side, 2 acyl side, 3 side chain; linkers in the order of their positions; H or OH if unused. Positions of bridges follow the written chain, without caps; N, C: chain ends. Non-standard residues stand in square brackets, D forms with d. Residues, ends and D or L forms follow the SMILES beside them. X1 = CC(C)CCCCCCCCC[C@H](CC(=O)[*:1])O[*:2]
# Assays:
# [1] = literature value, test organism not given; cited from earlier work
# Vibrio alginolyticus = test: Antimicrobial test for surfactin (MIC, 96-well broth dilution); assay type: cell-based; settings: 16 hrs at 37° C., read-out: minimum inhibitory concentration (MIC)
# Experimental: (§1) Escherichia coli DH5α, Vibrio harveyi, Vibrio alginolyticus, Vibrio anguillarum, Vibrio salmonicida, Aeromonas hydrophila and Staphylococcus epidermidis are separately inoculate onto LBA (E. coli DH5α) or TSA (+1.5% NaCl) and incubate at 37° C. for 16 hrs. Scrap off and dissolve the colonies in designated medium. When OD540 is at 1 (the concentration is around 1×10^9 colonies/c.c.), take 500 μl of the bacterial culture and add to 500 μl of LB or TSB (+1.5% NaCl) to make the bacterial concentration at […]; add 130 μl of the bacterial culture to each well of a 96-well plate, the concentration of bacterial culture is 1×10^4.5 colonies/c.c., before addition of 20 μl of chemically synthesized antimicrobial peptides at various concentrations. After 16 hrs of incubation at 37° C., the bacterial culture that is clear indicates the lowest concentration of the antimicrobial peptide, that is, minimum inhibitory concentration (MIC).
# Aeromonas hydrophila = test: as above; assay type: cell-based; settings: 16 hrs at 37° C., read-out: minimum inhibitory concentration (MIC)
# Experimental: as §1
# Vibrio harveyi = test: as above; assay type: cell-based; settings: 16 hrs at 37° C., read-out: minimum inhibitory concentration (MIC)
# Experimental: as §1
# Vibrio anguillarum = test: as above; assay type: cell-based; settings: 16 hrs at 37° C., read-out: minimum inhibitory concentration (MIC)
# Experimental: as §1
# Vibrio salmonicida = test: as above; assay type: cell-based; settings: 16 hrs at 37° C., read-out: minimum inhibitory concentration (MIC)
# Experimental: as §1
# Escherichia coli DH5α = test: as above; assay type: cell-based; settings: 16 h, E. coli, 16 hrs at 37° C., read-out: minimum inhibitory concentration (MIC)
# Experimental: as §1
# [2] = tested on: Staphylococcus epidermidis; test: as above; assay type: cell-based; settings: 16 hrs at 37° C., read-out: minimum inhibitory concentration (MIC)
# Experimental: as §1
# [3] = Antimicrobial test for surfactin, summary statement over the tested bacteria; assay type: cell-based; settings: text summary of Table 2, all tested bacteria; read-out: minimum inhibitory concentration (MIC)
# Experimental: as §1
structure (smiles),measurement,setting,value
CC(C)CCCCCCCCC[C@@H]1CC(=O)N[C@@H](CCC(=O)O)C(=O)N[C@@H](CC(C)C)C(=O)N[C@H](CC(C)C)C(=O)N[C@@H](C(C)C)C(=O)N[C@@H](CC(=O)O)C(=O)N[C@H](CC(C)C)C(=O)N[C@@H](CC(C)C)C(=O)O1 [surfactin] (EL[dL]VD[dL]L; linker N-C via X1),minimum inhibitory concentration (MIC),[1],50 µg/mL
"CC(C)CCCCCCCCC[C@@H]1CC(=O)N[C@@H](CCC(=O)O)C(=O)N[C@@H](CC(C)C)C(=O)N[C@H](CC(C)C)C(=O)N[C@@H](C(C)C)C(=O)N[C@@H](CC(=O)O)C(=O)N[C@H](CC(C)C)C(=O)N[C@@H](CC(C)C)C(=O)O1 [Bacillus subtilis subsp. ATCC21332, surfactin] (EL[dL]VD[dL]L; linker N-C via X1)",MIC,Vibrio alginolyticus; 16 h,129 µM
same,MIC,"Aeromonas hydrophila; Aeromonas hydrophila, 16 h",129 µM
same,MIC,Vibrio harveyi; 16 h,129 µM
same,MIC,"Vibrio anguillarum; Vibrio anguillarum, 16 h",129 µM
same,MIC,"Vibrio salmonicida; Aliivibrio salmonicida, 16 h",129 µM
same,MIC,Escherichia coli DH5α,193 µM
same,MIC,[2]; 16 h,129 µM
"CC(C)CCCCCCCCC[C@@H]1CC(=O)N[C@@H](CCC(=O)O)C(=O)N[C@@H](CC(C)C)C(=O)N[C@H](CC(C)C)C(=O)N[C@@H](C(C)C)C(=O)N[C@@H](CC(=O)O)C(=O)N[C@H](CC(C)C)C(=O)N[C@@H](CC(C)C)C(=O)O1 [High-yield mutant strain, surfactin] (EL[dL]VD[dL]L; linker N-C via X1)",MIC,Vibrio alginolyticus,96.5 µM
same,MIC,Aeromonas hydrophila,96.5 µM
same,MIC,Vibrio harveyi,96.5 µM
same,MIC,Vibrio anguillarum,96.5 µM
same,MIC,Vibrio salmonicida,96.5 µM
same,MIC,[2],96.5 µM
same,MIC,[3],96.5 µM
